The test system of one experiment is RXRα. Further details: method as in PMID 15073272. The note with it: cited from earlier work.
The next experiment relates to all RXR subtypes. Also noted: method as in PMID 9205071, PMID 26030625, PMID 27151148. The following applies: read-out: EC50 activating all RXR subtypes; cited from earlier work.
A further experiment concerns RXR. Nature of the experiment: Gal4 hybrid reporter gene assays, competition with bexarotene / antagonist UVI3003 (isoform not specified). It counts as cell-based, human. The note with it: UVI3003 at 1 µM; MA, PA and SA at 200 µM. Here is the method: The Gal4 hybrid reporter gene assays for RXRα, RXRβ and RXRγ were performed as described previously using the Gal4-fusion receptor plasmids pFA-CMV-hRXRα-LBD (NR2B1, UniProt entry: P19793, aa 225–462), pFA-CMV-hRXRβ-LBD (NR2B2, UniProt entry: P28702-1, aa 294–533) and pFA-CMV-hRXRγ-LBD (NR2B3, UniProt entry: P48443-1, aa 229–463), which code for the hinge region and LBD of the canonical RXR isoform. pFR-Luc (Stratagene, San Diego, CA, USA) as the reporter plasmid and pRL-SV40 (Promega, Madison, WI, USA) as the internal control were used. HEK293T cells were grown in DMEM high-glucose medium (supplemented with 10% fetal calf serum (FCS), sodium pyruvate (1 mM), penicillin (100 U/mL) and streptomycin (100 μg/mL)) at 37 °C and 5% CO2, and seeded in 96-well plates (3.0 × 10^4 cells/well) on the day before transfection. Right before transfection, medium was changed to Opti-MEM without supplements and cells were transiently transfected using the Lipofectamine LTX reagent (Invitrogen, Carlsbad, CA, USA) according to the manufacturer’s protocol with pFR-Luc (Stratagene), pRL-SV40 (Promega) and the respective pFA-CMV-hRXR-LBD clone. After 5 h of incubation, medium was changed to Opti-MEM (supplemented with penicillin (100 U/mL) and streptomycin (100 μg/mL)) additionally containing 0.1% DMSO and the respective test compounds or 0.1% DMSO alone as the untreated control. After overnight incubation (12–14 h), cells were assayed for luciferase activity using the Dual-Glo luciferase assay system (Promega) according to the manufacturer’s protocol on a Tecan Spark M10 luminometer (Tecan Deutschland GmbH, Crailsheim, Germany). Each sample was tested in at least three biologically independent repeats in duplicates. Data were normalized for transfection efficiency and cell growth by division of firefly luciferase data by Renilla luciferase data and multiplying by 1000 to obtain relative light units (RLUs). Fold activation denotes the mean RLU of test compounds at a respective concentration divided by the mean RLU of untreated control. […]
Background: A reporter such as luciferase makes a cellular process visible.

For experiment [1], the target named is T1, RXRβ ligand-binding domain (NR2B2, aa 298–533) (human, UniProt P28702 298-533).
T1 construct: Cloned in pNIC28-Bsa4; Crystallised with exogenously added palmitic acid; also called RXRβ LBD; not shown: histidine tag, N-terminal, cleaved
T1 sequence (looked up): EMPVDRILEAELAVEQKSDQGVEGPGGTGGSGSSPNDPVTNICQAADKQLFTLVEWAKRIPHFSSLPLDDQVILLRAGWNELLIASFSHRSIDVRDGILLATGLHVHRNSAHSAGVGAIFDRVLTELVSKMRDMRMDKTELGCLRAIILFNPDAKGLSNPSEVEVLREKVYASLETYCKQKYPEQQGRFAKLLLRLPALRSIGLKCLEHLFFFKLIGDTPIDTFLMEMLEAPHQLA
Nature of the experiment: crystal structure; sitting drop vapor diffusion at 20 °C; RXR LBD (10–13 mg/mL) with GRIP-1 peptide and palmitic acid (carried over from E. coli for RXRα, exogenously added for RXRβ and RXRγ). The note with it: both partners purified.

The target of experiment [2] is T2, RXRγ ligand-binding domain (NR2B3, aa 233–463) (human, UniProt P48443 233-463).
T2 construct: Cloned in pNIC28-Bsa4; Crystallised with exogenously added palmitic acid; also called RXRγ LBD; not shown: histidine tag, N-terminal, cleaved
T2 sequence (looked up): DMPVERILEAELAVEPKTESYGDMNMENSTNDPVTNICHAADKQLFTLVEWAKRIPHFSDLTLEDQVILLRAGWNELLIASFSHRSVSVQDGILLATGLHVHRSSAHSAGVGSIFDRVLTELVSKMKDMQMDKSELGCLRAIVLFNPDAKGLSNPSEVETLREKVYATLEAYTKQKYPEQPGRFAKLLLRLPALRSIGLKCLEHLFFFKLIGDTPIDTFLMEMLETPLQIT
The description is as above. The note with it: both partners purified.

Experiment [3] addresses T3, RXRα ligand-binding domain (NR2B1, aa 223–462) (human, UniProt P19793 223-462).
T3 construct: Cloned in pNIC28-Bsa4; Palmitic acid carried over from E. coli sat in the ligand pocket in the crystal; also called RXRα LBD; retinoid X receptor α; not shown: histidine tag, N-terminal, cleaved
T3 sequence (looked up): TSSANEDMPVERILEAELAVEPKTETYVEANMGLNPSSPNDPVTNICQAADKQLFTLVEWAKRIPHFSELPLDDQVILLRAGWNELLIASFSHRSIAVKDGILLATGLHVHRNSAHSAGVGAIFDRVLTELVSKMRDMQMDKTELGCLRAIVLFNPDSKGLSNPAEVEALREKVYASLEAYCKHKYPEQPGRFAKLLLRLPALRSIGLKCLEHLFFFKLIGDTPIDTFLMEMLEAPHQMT
The experiment is described as above. The following applies: both partners purified.

Experiment [4] has as its target T4, sGFP-RXRα LBD (aa 225–462) (human, UniProt P19793 225-462).
T4 construct: also called recombinant RXRα LBD fused to N-terminal superfolder green fluorescent protein; source: recombinant; not shown: superfolder green fluorescent protein (sGFP), N-terminal, kept
T4 sequence (looked up): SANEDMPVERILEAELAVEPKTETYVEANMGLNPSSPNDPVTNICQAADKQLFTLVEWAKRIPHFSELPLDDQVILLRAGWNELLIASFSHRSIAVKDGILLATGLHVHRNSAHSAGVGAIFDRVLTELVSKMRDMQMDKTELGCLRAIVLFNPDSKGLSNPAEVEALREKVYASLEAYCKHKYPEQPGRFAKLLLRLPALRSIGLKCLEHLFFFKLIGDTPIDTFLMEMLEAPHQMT
Nature of the experiment: AlphaScreen or HTRF; 12 nM sGFP-RXRα LBD (acceptor), 12 nM biotin-SRC-1 peptide on terbium cryptate-streptavidin (donor); 25 mM HEPES pH 7.5, 150 mM KF, 5% glycerol, 0.1% CHAPS, 5 mM DTT, 1% DMSO; 2 h at room temperature; with myristic, palmitic or stearic acid at varying concentrations, with or without 0.3 µM bexarotene; SR11237 as positive control. The note with it: both partners purified.

No end group written: not given here. *: point of attachment. Biotin = O=C1N[C@H]2[C@H](CS[C@H]2CCCCC(=O)*)N1

By EC50 is commonly meant the concentration at which the effect is half-maximal. Consider `CC/C=C\C/C=C\C/C=C\C/C=C\C/C=C\C/C=C\CCC(=O)O` [docosahexaenoic acid], for which the concentration giving a half-maximal response (EC50) with RXRα is about 10 µM. Turning to `CC1=C(/C=C/C(C)=C\C=C\C(C)CC(=O)O)C(C)(C)CCC1` (stereo not drawn) [9-cis-13,14-dihydroretinoic acid], the EC50 in the experiment on all RXR subtypes is about 0.1 µM. For `CC1=C(/C=C/C(C)=C\C=C\C(C)=C\C(=O)O)C(C)(C)CCC1` [9-cis-retinoic acid], the EC50 in the experiment on all RXR subtypes was about 0.1 µM. `CCCCC/C=C\C/C=C\C/C=C\C/C=C\CCCC(=O)O` [arachidonic acid]: in the experiment on RXRα, the concentration for a half-maximal effect (EC50) is about 10 µM.

For the molecule `CCCCCOc1cc2c(cc1-c1cc(/C=C/C(=O)O)ccc1O)C(C)(C)CCC2(C)C` [UVI3003, reference compound], the “reversal of RXR agonistic effect of MA, PA and SA” value in the experiment on RXR is “fully reversed”.

B1: glucocorticoid receptor interacting protein 1 (GRIP-1) co-regulator peptide (peptide)
peptide: KHKILHRLLQDSSY
notes: NCOA2/TIF2) with an LxxLL box; last printed residue of the peptide; also called GRIP-1 peptide
As to B1, the binding result in experiment [1], in experiment [2] and in experiment [3] was “binds” in each case.

B2: SRC-1-derived peptide (steroid receptor co-activator 1) (peptide)
peptide: Biotin-CPSSHSSLTERHKILHRLLQEGSPS
notes: NCOA1), contains the consensus motif LxxLL; Coupled through its biotin to terbium cryptate-streptavidin conjugate (FRET donor); source: bought: Eurogentec Deutschland GmbH; not shown: biotin, N-terminal, kept
Take B2: in experiment [4], the binding result is given as “binds”.

These data come from paper PMC7697888, “Comprehensive Set of Tertiary Complex Structures and Palmitic Acid Binding Provide Molecular Insights into Ligand Design for RXR Isoforms” (International Journal of Molecular Sciences, 2020).
